# Test results: patent US12600709B2, “Nonpeptide somatostatin type 5 receptor agonists and uses thereof” (Crinetics Pharmaceuticals, Inc., priority 2019, dated 2026)
# Read-outs that look alike come from different tables or passages of the source.
# Molecular target: T1, human somatostatin receptor subtype 5 (Homo sapiens, UniProt P35346)
# T1 construct: expressed in transfected cells
# Assay: cAMP assay for SST5R (inhibition of cAMP in CHO-K1 cells)
# Format: cell-based
# Conditions: inhibition of cAMP via human SST5 receptor, read-out: SST5 potency
# Source text: General overview: All five SSTR subtypes are Gi coupled G-protein coupled receptors (GPCRs) that lead to decreases in intracellular cyclic AMP (cAMP) when activated by an agonist. Therefore, measurement of intracellular cAMP levels can be used to assess whether compounds of the invention are agonists of SSTR subtypes (John Kelly, Troy Stevens, W. Joseph Thompson, and Roland Seifert, Current Protocols in Pharmacology, 2005, 2.2.1-2.2). One example of an intracellular cAMP assay is described below.
# cAMP Assay Protocol for SST5R:
# Four days prior to the assay, 2,000 Chinese hamster ovary cells (CHO-K1, ATCC #CCL-61) stably expressing the human somatostatin receptor subtype 5 are plated in each well of a 96-well tissue culture-treated plate in Ham's F12 growth media (ThermoFisher #10-080-CM) supplemented with 10% donor bovine serum (Gemini Bio-Products #100-506), 100 U/mL penicillin; 100 µg/mL streptomycin; 2 mM L-glutamine (Gemini Bio-Products #400-110) and 0.25 mg/mL G418 Sulfate (GoldBio #108321-42-2). The cells are cultured at 37° C., 5% CO2 and 95% humidity. On the day of the assay, the media is aspirated and the cells are treated with 50 μL of 1.6 μM NKH477 (Sigma #N3290) plus various dilutions of compounds of the invention in assay buffer [1× Hank's Balanced Salt Solution (ThermoFisher #SH3058802), 0.5 mM HEPES pH 7.4, 0.1% bovine serum albumin, 0.2 mM 3-Isobutyl-1-methylxanthine (IBMX, VWR #200002-790)]. The cells are incubated for 20 minutes at 37° C. […] The cells are treated with 50 μL of lysis buffer (HRTF cAMP kit, Cisbio) for 30 minutes and then the lysate is diluted to 250 μL with assay buffer. The lysate is transferred to 384-well plates and cAMP detection and visualization antibodies are added and incubated for 1-24 hours at room temperature. The time-resolved fluorescent signal is read with a Tecan M1000Pro multiplate reader. The intracellular cAMP concentrations are calculated by regression to a standard curve and are plotted vs. the concentration of the compounds of the invention and the EC50 of the compounds are calculated using standard methods. All data manipulations are in GraphPad Prism v6 or v7.
# T1 sequence (P35346 whole entry): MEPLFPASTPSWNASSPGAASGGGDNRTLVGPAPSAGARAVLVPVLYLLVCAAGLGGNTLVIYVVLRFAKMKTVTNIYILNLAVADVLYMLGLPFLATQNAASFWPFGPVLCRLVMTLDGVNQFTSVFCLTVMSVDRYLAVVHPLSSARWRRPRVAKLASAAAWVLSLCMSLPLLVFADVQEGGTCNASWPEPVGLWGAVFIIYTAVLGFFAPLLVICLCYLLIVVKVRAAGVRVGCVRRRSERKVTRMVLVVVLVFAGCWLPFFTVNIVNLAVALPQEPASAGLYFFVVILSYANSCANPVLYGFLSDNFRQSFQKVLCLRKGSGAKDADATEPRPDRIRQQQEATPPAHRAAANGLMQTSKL
Compound,EC50 (Table A) [nM],EC50 (Table B) [nM]
"CC(NC(=O)c1cnc(C#N)c(-c2cc(F)cc(F)c2)c1N1CCC(N)C1)C(F)(F)F (stereo not drawn) [1-225, 4-(3-aminopyrrolidin-1-yl)-6-cyano-5-(3,5-difluorophenyl)-N-(1,1,1-trifluoropropan-2-yl)pyridine-3-carboxamide]",< 10,–
"N[C@@H]1CN(c2c(C(=O)NC34CC(C3)C4)cncc2-c2cc(F)cc(F)c2)C[C@H]1F [1-37, 4-[(3R,4R)-3-amino-4-fluoropyrrolidin-1-yl]-N-{bicyclo[1.1.1]pentan-1-yl}-5-(3,5-difluorophenyl)pyridine-3-carboxamide]",10 to 100,–
"Cc1cccc2[nH]c(-c3cncc(C(=O)N[C@H](C)C(F)(F)F)c3N3CC[C@](C)(N)C3)nc12 [2-18, 4-[(3S)-3-amino-3-methylpyrrolidin-1-yl]-5-(4-methyl-1H-1,3-benzodiazol-2-yl)-N-[(2R)-1,1,1-trifluoropropan-2-yl]pyridine-3-carboxamide]",< 10,–
"Cc1cnc(C(=O)N[C@@H](C)C2CC2)c(N2CC[C@](C)(N)C2)c1-c1cc(F)cc(F)c1 [4-2, 3-[(3S)-3-amino-3-methylpyrrolidin-1-yl]-N-[(1S)-1-cyclopropylethyl]-4-(3,5-difluorophenyl)-5-methylpyridine-2-carboxamide]",10 to 100,–
"N#Cc1cccc(-c2cncc(C(=O)NC3CCCCC3)c2N2CC[C@H](N)C2)c1 [1-7, 4-[(3S)-3-aminopyrrolidin-1-yl]-5-(3-cyanophenyl)-N-cyclohexylpyridine-3-carboxamide]",100 to 1000,–
"Cc1ncc(C(=O)NCC2(O)CCCC2)c(N2CC[C@](C)(N)C2)c1-c1cc(F)cc(F)c1 [1-223, 4-[(3S)-3-amino-3-methylpyrrolidin-1-yl]-5-(3,5-difluorophenyl)-N-[(1-hydroxycyclopentyl)methyl]-6-methylpyridine-3-carboxamide]",10 to 100,–
"C[C@H](NC(=O)c1cnc(C#N)c(-c2cc(F)cc(F)c2)c1N1CC[C@H](N)C1)c1ccccc1 [1-97, 4-[(3S)-3-aminopyrrolidin-1-yl]-6-cyano-5-(3,5-difluorophenyl)-N-[(1S)-1-phenylethyl]pyridine-3-carboxamide]",< 10,–
"C[C@@H](NC(=O)c1cnc(C#N)c(-c2cc(F)cc(F)c2)c1N1CC[C@](C)(N)C1)C(F)(F)F [1-222, 4-[(3S)-3-amino-3-methylpyrrolidin-1-yl]-6-cyano-5-(3,5-difluorophenyl)-N-[(2R)-1,1,1-trifluoropropan-2-yl]pyridine-3-carboxamide]",< 10,–
"C[C@]1(N)CCN(c2c(C(=O)NCC3CC(F)(F)C3)cncc2-c2cc(F)cc(F)c2)C1 [1-50, 4-[(3S)-3-amino-3-methylpyrrolidin-1-yl]-N-[(3,3-difluorocyclobutyl)methyl]-5-(3,5-difluorophenyl)pyridine-3-carboxamide]",< 10,–
"COc1ncc(C(=O)N2CCCCC2)c(N2CC[C@H](N)C2)c1-c1cc(F)cc(F)c1 [1-235, (3S)-1-[3-(3,5-difluorophenyl)-2-methoxy-5-(piperidine-1-carbonyl)pyridin-4-yl]pyrrolidin-3-amine]",> 1000,–
"C[C@H](NC(=O)c1cnc(C(F)(F)F)c(-c2cc(F)cc(F)c2)c1N1CC[C@](C)(N)C1)C1CC1 [1-189, 4-[(3S)-3-amino-3-methylpyrrolidin-1-yl]-N-[(1S)-1-cyclopropylethyl]-5-(3,5-difluorophenyl)-6-(trifluoromethyl)pyridine-3-carboxamide]",< 10,–
"C[C@H](NC(=O)c1cnc(C#N)c(-c2cc(F)cc(F)c2)c1N1CC[C@](N)(CF)C1)C1CC1 (single isomer, unassigned) [1-221]",10 to 100,–
"C[C@@H](C1CC1)N(C)C(=O)c1cnc(C#N)c(-c2cc(F)cc(F)c2)c1N1CC[C@](C)(N)C1 [1-219, 4-[(3S)-3-amino-3-methylpyrrolidin-1-yl]-6-cyano-N-[(1S)-1-cyclopropylethyl]-5-(3,5-difluorophenyl)-N-methylpyridine-3-carboxamide]",< 10,–
C[C@]1(N)CCN(c2c(C(=O)N[C@H]3C[C@H](F)C3)cncc2-c2cc(F)cc(F)c2)C1 [1-55],< 10,–
"Cc1cc(F)cc(-c2cncc(C(=O)NC3(C(F)(F)F)CCCC3)c2N2CC[C@](C)(N)C2)c1 [1-15, 4-[(3S)-3-amino-3-methylpyrrolidin-1-yl]-5-(3-fluoro-5-methylphenyl)-N-[1-(trifluoromethyl)cyclopentyl]pyridine-3-carboxamide]",< 10,–
"Cc1cccc2[nH]c(-c3cncc(C(=O)NC(C)CC(F)(F)F)c3N3CC[C@](C)(N)C3)nc12 (stereo partly drawn) [2-32, 4-[(3S)-3-amino-3-methylpyrrolidin-1-yl]-5-(4-methyl-1H-1,3-benzodiazol-2-yl)-N-(4,4,4-trifluorobutan-2-yl)pyridine-3-carboxamide]",< 10,–
"CC(CC(F)(F)F)NC(=O)c1cncc(-c2cc(F)cc(F)c2)c1N1CC[C@](C)(N)C1 (stereo partly drawn) [1-60, 4-[(3S)-3-amino-3-methylpyrrolidin-1-yl]-5-(3,5-difluorophenyl)-N-(4,4,4-trifluorobutan-2-yl)pyridine-3-carboxamide]",< 10,–
"C[C@H](NC(=O)c1cnc(C#N)c(-c2cc(F)cc(F)c2)c1N1CC[C@@](N)(CC(F)F)C1)C1CC1 (single isomer, unassigned) [1-119]",100 to 1000,–
"Cc1cccc2[nH]c(-c3cncc(C(=O)NC4CCCC4)c3N3CC[C@](C)(N)C3)nc12 [2-4, 4-[(3S)-3-amino-3-methylpyrrolidin-1-yl]-N-cyclopentyl-5-(4-methyl-1H-1,3-benzodiazol-2-yl)pyridine-3-carboxamide]",< 10,–
"CCNC(=O)c1cncc(-c2nc3c(C)cccc3[nH]2)c1N1CC[C@](C)(N)C1 [2-1, 4-[(3S)-3-amino-3-methylpyrrolidin-1-yl]-N-ethyl-5-(4-methyl-1H-1,3-benzodiazol-2-yl)pyridine-3-carboxamide]",10 to 100,–
"Cc1cccc2[nH]c(-c3cncc(C(=O)N4CCC(C)(C)C4)c3N3CC[C@](C)(N)C3)nc12 [2-19, (3S)-1-[3-(3,3-dimethylpyrrolidine-1-carbonyl)-5-(4-methyl-1H-1,3-benzodiazol-2-yl)pyridin-4-yl]-3-methylpyrrolidin-3-amine]",< 10,–
"Cc1cccc2[nH]c(-c3cncc(C(=O)NC(C)C4CC4)c3N3CC[C@](C)(N)C3)nc12 (stereo partly drawn) [2-14, 4-[(3S)-3-amino-3-methylpyrrolidin-1-yl]-N-(1-cyclopropylethyl)-5-(4-methyl-1H-1,3-benzodiazol-2-yl)pyridine-3-carboxamide]",< 10,–
"COCC1(N)CCN(c2c(C(=O)NC34CC(C3)C4)cncc2-c2cc(F)cc(F)c2)C1 (stereo not drawn) [1-36, 4-[3-amino-3-(methoxymethyl)pyrrolidin-1-yl]-N—{bicyclo[1.1.1]pentan-1-yl}-5-(3,5-difluorophenyl)pyridine-3-carboxamide]",10 to 100,–
"COc1ncc(C(=O)N[C@H]2CCC(F)(F)C2)c(N2CC[C@](C)(N)C2)c1-c1cc(F)cc(F)c1 [1-145, 4-[(3S)-3-amino-3-methylpyrrolidin-1-yl]-N-[(1S)-3,3-difluorocyclopentyl]-5-(3,5-difluorophenyl)-6-methoxypyridine-3-carboxamide]",< 10,–
"Cc1cccc2[nH]c(-c3cncc(C(=O)N4CCC(F)(F)C4)c3N3CC[C@](C)(N)C3)nc12 [2-25, (3S)-1-[3-(3,3-difluoropyrrolidine-1-carbonyl)-5-(4-methyl-1H-1,3-benzodiazol-2-yl)pyridin-4-yl]-3-methylpyrrolidin-3-amine]",10 to 100,–
"CC1(CNC(=O)c2cncc(-c3cc(F)cc(F)c3)c2N2CC[C@](C)(N)C2)CC1 [1-32, 4-[(3S)-3-amino-3-methylpyrrolidin-1-yl]-5-(3,5-difluorophenyl)-N-[(1-methylcyclopropyl)methyl]pyridine-3-carboxamide]",< 10,–
"Cc1ncc(C(=O)N[C@@H](C)C2CC2)c(N2CC[C@](C)(N)C2)c1-c1cnn(CC(F)(F)F)c1 [1-155, 4-[(3S)-3-amino-3-methylpyrrolidin-1-yl]-N-[(1S)-1-cyclopropylethyl]-6-methyl-5-[1-(2,2,2-trifluoroethyl)-1H-pyrazol-4-yl]pyridine-3-carboxamide]",> 1000,> 1000
"COC(=O)c1cnc(C(=O)N[C@@H](C)C2CC2)c(N2CC[C@](C)(N)C2)c1-c1cc(F)cc(F)c1 [4-4, methyl 5-[(3S)-3-amino-3-methylpyrrolidin-1-yl]-6-{[(1S)-1-cyclopropylethyl]carbamoyl}-4-(3,5-difluorophenyl)pyridine-3-carboxylate]",10 to 100,–
"N#Cc1ncc(C(=O)NC23CC(C2)C3)c(N2C[C@H](N)[C@@H](F)C2)c1-c1cc(F)cc(F)c1 (single isomer, unassigned) [1-102]",10 to 100,–
